# System: MV-4-11 cells
# Assay: Gene expression microarray analysis (Affymetrix PrimeView) and GSEA
# Type: cell-based, human
# Parameters: RFU PODN (11730768_x_at) / Fold change /veh PODN (11730768_x_at) / RFU LINC00158 (11744669_a_at) / Fold change /veh LINC00158 (11744669_a_at) / RFU DUSP10 (11751237_a_at) / Fold change /veh DUSP10 (11751237_a_at) / RFU ID3 (11757404_x_at) / Fold change /veh ID3 (11757404_x_at) / RFU PLEKHG5 (11737974_s_at) / Fold change /veh PLEKHG5 (11737974_s_at) / RFU LRRC4B (11730491_at) / Fold change /veh LRRC4B (11730491_at) / RFU GIMAP4 (11747438_a_at) / Fold change /veh GIMAP4 (11747438_a_at) / RFU KRT8 (11758183_x_at) / Fold change /veh KRT8 (11758183_x_at) / RFU CNN1 (11734310_a_at) / Fold change /veh CNN1 (11734310_a_at) / RFU VPS37D (11726825_at) / Fold change /veh VPS37D (11726825_at) / RFU C10orf10 (11716522_x_at) / Fold change /veh C10orf10 (11716522_x_at) / RFU KIR2DL2 /// KIR2DL4 /// KIR2DL5A /// KIR2DL5B /// KIR2DS1 /// KIR2DS2 /// KIR2DS3 /// KIR2DS4 /// KIR3DL3 /// KIR3DL3 /// KIR3DS1 (11738374_at) / Fold change /veh KIR2DL2 /// KIR2DL4 /// KIR2DL5A /// KIR2DL5B /// KIR2DS1 /// KIR2DS2 /// KIR2DS3 /// KIR2DS4 /// KIR3DL3 /// KIR3DL3 /// KIR3DS1 (11738374_at) / RFU C1QL1 (11718748_at) / Fold change /veh C1QL1 (11718748_at) / RFU TMPRSS4 (11747572_a_at) / Fold change /veh TMPRSS4 (11747572_a_at) / RFU HAMP (11756126_x_at) / Fold change /veh HAMP (11756126_x_at) / RFU RNFT2 (11725882_a_at) / Fold change /veh RNFT2 (11725882_a_at) / RFU NR4A2 (11747474_a_at) / Fold change /veh NR4A2 (11747474_a_at) / RFU ABCC12 (11746883_a_at) / Fold change /veh ABCC12 (11746883_a_at) / RFU TMEM136 (11760407_x_at) / Fold change /veh TMEM136 (11760407_x_at) / RFU CLDN22 /// WWC2 (11732394_at) / Fold change /veh CLDN22 /// WWC2 (11732394_at) / RFU HLA-DPB1 (11760878_x_at) / Fold change /veh HLA-DPB1 (11760878_x_at) / RFU SPINT1 (11716480_a_at) / Fold change /veh SPINT1 (11716480_a_at) / RFU GAP43 (11754022_s_at) / Fold change /veh GAP43 (11754022_s_at) / RFU A4GNT (11735810_at) / Fold change /veh A4GNT (11735810_at) / RFU PRB3 (11715151_x_at) / Fold change /veh PRB3 (11715151_x_at) / RFU TUBB4B (11761932_at) / Fold change /veh TUBB4B (11761932_at) / RFU CAPN14 (11732068_a_at) / Fold change /veh CAPN14 (11732068_a_at) / RFU TMCC2 (11721928_a_at) / Fold change /veh TMCC2 (11721928_a_at) / RFU IRGQ (11745062_a_at) / Fold change /veh IRGQ (11745062_a_at) / RFU FAM174B (11720279_a_at) / Fold change /veh FAM174B (11720279_a_at) / RFU TMPRSS4 (11748680_a_at) / Fold change /veh TMPRSS4 (11748680_a_at) / RFU FAM212B (11763350_a_at) / Fold change /veh FAM212B (11763350_a_at) / RFU PLEKHG5 (11743358_a_at) / Fold change /veh PLEKHG5 (11743358_a_at) / RFU ZSCAN30 (11745921_a_at) / Fold change /veh ZSCAN30 (11745921_a_at) / RFU CMKLR1 (11741424_a_at) / Fold change /veh CMKLR1 (11741424_a_at) / RFU LOC101060620 /// MAPK8IP1 (11723275_at) / Fold change /veh LOC101060620 /// MAPK8IP1 (11723275_at) / RFU SPTSSB (11747773_x_at) / Fold change /veh SPTSSB (11747773_x_at) / RFU PRSS12 (11739890_at) / Fold change /veh PRSS12 (11739890_at) / RFU BIN1 (11741810_x_at) / Fold change /veh BIN1 (11741810_x_at) / RFU WNT11 (11732464_a_at) / Fold change /veh WNT11 (11732464_a_at) / RFU C10orf10 (11716521_a_at) / Fold change /veh C10orf10 (11716521_a_at) / RFU C5orf56 (11738089_at) / Fold change /veh C5orf56 (11738089_at) / RFU CYB561 (11721691_x_at) / Fold change /veh CYB561 (11721691_x_at) / RFU ANKRD19P (11752326_a_at) / Fold change /veh ANKRD19P (11752326_a_at) / RFU OR2T12 /// OR2T33 /// OR2T8 (11738714_s_at) / Fold change /veh OR2T12 /// OR2T33 /// OR2T8 (11738714_s_at) / RFU VCAN (11748164_a_at) / Fold change /veh VCAN (11748164_a_at) / RFU JSRP1 (11732532_at) / Fold change /veh JSRP1 (11732532_at) / RFU KRTAP10-11 (11738290_x_at) / Fold change /veh KRTAP10-11 (11738290_x_at) / RFU MYO3A (11730013_a_at) / Fold change /veh MYO3A (11730013_a_at) / RFU EBF3 (11725865_a_at) / Fold change /veh EBF3 (11725865_a_at) / RFU CAMK2N1 (11719241_x_at) / Fold change /veh CAMK2N1 (11719241_x_at) / RFU C5orf56 (11738088_a_at) / Fold change /veh C5orf56 (11738088_a_at) / RFU OLFML3 (11715873_a_at) / Fold change /veh OLFML3 (11715873_a_at) / RFU LOC100653217 /// NTM (11731650_a_at) / Fold change /veh LOC100653217 /// NTM (11731650_a_at) / RFU MAPK11 (11762145_a_at) / Fold change /veh MAPK11 (11762145_a_at) / RFU FIZ1 (11724087_x_at) / Fold change /veh FIZ1 (11724087_x_at) / RFU OASL (11726364_x_at) / Fold change /veh OASL (11726364_x_at) / RFU SOX15 (11748057_x_at) / Fold change /veh SOX15 (11748057_x_at) / RFU CD79A (11719716_a_at) / Fold change /veh CD79A (11719716_a_at) / RFU HIST1H1D (11736915_at) / Fold change /veh HIST1H1D (11736915_at) / RFU CASKIN2 (11723855_a_at) / Fold change /veh CASKIN2 (11723855_a_at) / RFU LOC730098 (11760151_x_at) / Fold change /veh LOC730098 (11760151_x_at) / RFU OR4N2 (11742367_at) / Fold change /veh OR4N2 (11742367_at) / RFU PRRT2 (11749266_a_at) / Fold change /veh PRRT2 (11749266_a_at) / RFU SNX32 (11753110_a_at) / Fold change /veh SNX32 (11753110_a_at) / RFU CDHR5 (11726645_a_at) / Fold change /veh CDHR5 (11726645_a_at) / RFU RCAN1 (11760418_a_at) / Fold change /veh RCAN1 (11760418_a_at) / RFU FAM167A (11723789_a_at) / Fold change /veh FAM167A (11723789_a_at) / RFU FAM26E (11764081_at) / Fold change /veh FAM26E (11764081_at) / RFU ISYNA1 (11749810_s_at) / Fold change /veh ISYNA1 (11749810_s_at) / RFU ACY1 (11761880_at) / Fold change /veh ACY1 (11761880_at) / RFU 11764098_at / Fold change /veh 11764098_at / RFU SAMD14 (11745864_x_at) / Fold change /veh SAMD14 (11745864_x_at) / RFU NPB (11741838_a_at) / Fold change /veh NPB (11741838_a_at) / RFU TMPRSS6 (11731388_a_at) / Fold change /veh TMPRSS6 (11731388_a_at) / RFU KRTAP10-2 (11738614_at) / Fold change /veh KRTAP10-2 (11738614_at) / RFU ARHGAP8 /// PRR5-ARHGAP8 (11727945_x_at) / Fold change /veh ARHGAP8 /// PRR5-ARHGAP8 (11727945_x_at) / RFU KRTAP5-7 /// NADSYN1 (11734609_at) / Fold change /veh KRTAP5-7 /// NADSYN1 (11734609_at) / RFU RASL12 (11751679_a_at) / Fold change /veh RASL12 (11751679_a_at) / RFU CDKN2B (11736163_a_at) / Fold change /veh CDKN2B (11736163_a_at) / RFU PRF1 (11729649_at) / Fold change /veh PRF1 (11729649_at) / RFU, ZNF638 /// ZNF638-IT1 / Fold change vs veh, ZNF638 /// ZNF638-IT1 / RFU, PANK3 / Fold change vs veh, PANK3 / RFU, SH3YL1 / Fold change vs veh, SH3YL1 / RFU, ZEB2 / Fold change vs veh, ZEB2 / RFU, NRIP1 / Fold change vs veh, NRIP1 / RFU, PTTG1IP / Fold change vs veh, PTTG1IP / RFU, CAPN2 / Fold change vs veh, CAPN2 / RFU, MED14 / Fold change vs veh, MED14 / RFU, SNORA58 / Fold change vs veh, SNORA58 / RFU, C1orf63 / Fold change vs veh, C1orf63 / RFU, LRRFIP1 / Fold change vs veh, LRRFIP1 / RFU, NDUFAF7 / Fold change vs veh, NDUFAF7 / RFU, SLC12A2 / Fold change vs veh, SLC12A2 / RFU, IBTK / Fold change vs veh, IBTK / RFU, ESF1 / Fold change vs veh, ESF1 / Fold change vs veh, TMEM50B / RFU, TAOK1 / Fold change vs veh, TAOK1 / RFU, ACBD3 / Fold change vs veh, ACBD3 / RFU, TMA16 / Fold change vs veh, TMA16 / RFU, RWDD3 / Fold change vs veh, RWDD3 / RFU, BCAT1 / Fold change vs veh, BCAT1 / RFU, EDEM3 / Fold change vs veh, EDEM3 / RFU, TMEM33 / Fold change vs veh, TMEM33 / RFU, WDR75 / Fold change vs veh, WDR75 / RFU, AHCTF1 / Fold change vs veh, AHCTF1 / RFU, TFRC / Fold change vs veh, TFRC / RFU, ZDHHC17 / Fold change vs veh, ZDHHC17 / RFU, NOM1 / Fold change vs veh, NOM1 / RFU, ARL8B / Fold change vs veh, ARL8B / RFU, ZBTB11 / Fold change vs veh, ZBTB11 / RFU, TAMM41 / Fold change vs veh, TAMM41 / RFU, KIAA1704 /// LOC100996395 / Fold change vs veh, KIAA1704 /// LOC100996395 / RFU, ING1 / Fold change vs veh, ING1 / RFU, TRMT61B / Fold change vs veh, TRMT61B / RFU, FUBP3 / Fold change vs veh, FUBP3 / RFU, TP53 / Fold change vs veh, TP53 / RFU, TNKS2 / Fold change vs veh, TNKS2 / RFU, ZFP14 / Fold change vs veh, ZFP14 / RFU, ACTR2 / Fold change vs veh, ACTR2 / RFU, PPP3R1 / Fold change vs veh, PPP3R1 / RFU, PIK3R1 / Fold change vs veh, PIK3R1 / RFU, HNRNPA1 / Fold change vs veh, HNRNPA1 / RFU, RNF170 / Fold change vs veh, RNF170 / RFU, ZNF28 / Fold change vs veh, ZNF28 / RFU, RNGTT / Fold change vs veh, RNGTT / RFU, OGT / Fold change vs veh, OGT / RFU, BRD1 / Fold change vs veh, BRD1 / RFU, MARS / Fold change vs veh, MARS / RFU, ZNF655 / Fold change vs veh, ZNF655 / RFU, FAHD1 / Fold change vs veh, FAHD1 / RFU, BDP1 / Fold change vs veh, BDP1 / RFU, LRRCC1 / Fold change vs veh, LRRCC1 / RFU, ARID1A / Fold change vs veh, ARID1A / RFU, ZNF146 / Fold change vs veh, ZNF146 / RFU, ZNF330 / Fold change vs veh, ZNF330 / RFU, GPN3 / Fold change vs veh, GPN3 / RFU, C9orf123 / Fold change vs veh, C9orf123 / RFU, N4BP2L2 / Fold change vs veh, N4BP2L2 / RFU, ARFIP1 / Fold change vs veh, ARFIP1 / RFU, FAM179B / Fold change vs veh, FAM179B / RFU, BCL10 / Fold change vs veh, BCL10 / RFU, UHRF1BP1L / Fold change vs veh, UHRF1BP1L / RFU, BET1 / Fold change vs veh, BET1 / RFU, CNOT2 / Fold change vs veh, CNOT2 / RFU, ZNF268 / Fold change vs veh, ZNF268 / Fold change vs veh, ZNF507 / RFU, DGCR2 / Fold change vs veh, DGCR2 / RFU, WDSUB1 / Fold change vs veh, WDSUB1 / Fold change vs veh, HSP90B1 /// MIR3652 / RFU, ADSS / Fold change vs veh, ADSS / RFU, GK / Fold change vs veh, GK / RFU, ZNF148 / Fold change vs veh, ZNF148 / RFU, TAF9 / Fold change vs veh, TAF9 / RFU, SLC1A5 / Fold change vs veh, SLC1A5 / RFU, SLMO2 / Fold change vs veh, SLMO2 / RFU, ABCC4 / Fold change vs veh, ABCC4 / RFU, LOC101060439 /// RAP1B / Fold change vs veh, LOC101060439 /// RAP1B / RFU, RFX7 / Fold change vs veh, RFX7 / RFU, GTPBP10 / Fold change vs veh, GTPBP10 / RFU, CNEP1R1 / Fold change vs veh, CNEP1R1 / RFU, BIVM-ERCC5 /// ERCC5 / Fold change vs veh, BIVM-ERCC5 /// ERCC5 / RFU, ILF3 / Fold change vs veh, ILF3 / RFU 11762660_at / Fold change /veh 11762660_at / RFU VCAN (11757783_s_at) / Fold change /veh VCAN (11757783_s_at) / RFU DDX43 (11728927_at) / Fold change /veh DDX43 (11728927_at) / RFU KRT8 (11758188_x_at) / Fold change /veh KRT8 (11758188_x_at) / RFU NKD1 (11759106_at) / Fold change /veh NKD1 (11759106_at) / RFU SRD5A1 (11742802_a_at) / Fold change /veh SRD5A1 (11742802_a_at) / RFU TPSAB1 /// TPSB2 (11721975_s_at) / Fold change /veh TPSAB1 /// TPSB2 (11721975_s_at) / RFU GSTM3 (11746129_a_at) / Fold change /veh GSTM3 (11746129_a_at) / RFU IL23R (11737362_x_at) / Fold change /veh IL23R (11737362_x_at) / RFU TMEM51 (11727254_a_at) / Fold change /veh TMEM51 (11727254_a_at) / RFU PIWIL2 (11732686_x_at) / Fold change /veh PIWIL2 (11732686_x_at) / RFU ORM1 (11744905_x_at) / Fold change /veh ORM1 (11744905_x_at) / RFU CCDC152 (11743942_at) / Fold change /veh CCDC152 (11743942_at) / RFU ECM1 (11717891_a_at) / Fold change /veh ECM1 (11717891_a_at) / RFU IL23R (11748794_a_at) / Fold change /veh IL23R (11748794_a_at) / RFU TNFAIP8L3 (11732012_x_at) / Fold change /veh TNFAIP8L3 (11732012_x_at) / RFU MBOAT4 (11741988_at) / Fold change /veh MBOAT4 (11741988_at) / RFU 11764193_at / Fold change /veh 11764193_at / RFU TMEM53 (11763286_at) / Fold change /veh TMEM53 (11763286_at) / RFU MAGEB2 (11727129_at) / Fold change /veh MAGEB2 (11727129_at) / RFU TMEM200A (11744735_a_at) / Fold change /veh TMEM200A (11744735_a_at) / RFU CCDC152 (11751479_a_at) / Fold change /veh CCDC152 (11751479_a_at) / RFU FAM211A (11726209_a_at) / Fold change /veh FAM211A (11726209_a_at) / RFU RGS16 (11746705_a_at) / Fold change /veh RGS16 (11746705_a_at) / RFU VCAN (11755009_s_at) / Fold change /veh VCAN (11755009_s_at) / RFU RHOB (11743442_s_at) / Fold change /veh RHOB (11743442_s_at) / RFU RGS16 (11720943_a_at) / Fold change /veh RGS16 (11720943_a_at) / RFU RGS16 (11720944_at) / Fold change /veh RGS16 (11720944_at) / RFU, VPS4B / Fold change vs veh, VPS4B / RFU, CREB1 / Fold change vs veh, CREB1 / RFU, DNAJC13 / Fold change vs veh, DNAJC13 / RFU, GNAQ / Fold change vs veh, GNAQ / RFU, CDK5R1 / Fold change vs veh, CDK5R1 / RFU, ZRANB3 / Fold change vs veh, ZRANB3 / RFU, CUL4A / Fold change vs veh, CUL4A / RFU, CCNY / Fold change vs veh, CCNY / RFU, UFL1 / Fold change vs veh, UFL1 / RFU, COG3 / Fold change vs veh, COG3 / RFU, DIAPH2 / Fold change vs veh, DIAPH2 / RFU, SKA2 / Fold change vs veh, SKA2 / RFU, AFF3 / Fold change vs veh, AFF3 / RFU, LMF1 / Fold change vs veh, LMF1 / RFU, IPO11 / Fold change vs veh, IPO11 / RFU, DFFB / Fold change vs veh, DFFB / RFU, FOXP1 / Fold change vs veh, FOXP1 / RFU, CARD8 / Fold change vs veh, CARD8 / RFU, STRN3 / Fold change vs veh, STRN3 / RFU, ADK / Fold change vs veh, ADK / RFU, RASSF2 / Fold change vs veh, RASSF2 / RFU, WIPF1 / Fold change vs veh, WIPF1 / RFU, LARP1B / Fold change vs veh, LARP1B / RFU, RASA1 / Fold change vs veh, RASA1 / RFU, RB1 / Fold change vs veh, RB1 / RFU, PPFIA1 / Fold change vs veh, PPFIA1 / RFU, MAT2A / Fold change vs veh, MAT2A / RFU, CCT5 / Fold change vs veh, CCT5 / RFU, WDR92 / Fold change vs veh, WDR92 / RFU, CUX1 / Fold change vs veh, CUX1 / RFU, TTC7A / Fold change vs veh, TTC7A / RFU, TMEM135 / Fold change vs veh, TMEM135 / RFU, DEPTOR / Fold change vs veh, DEPTOR / RFU, CPM / Fold change vs veh, CPM / RFU, DNAJB6 / Fold change vs veh, DNAJB6 / RFU, CACNA2D3 / Fold change vs veh, CACNA2D3 / RFU, DTX4 / Fold change vs veh, DTX4 / RFU, TFCP2 / Fold change vs veh, TFCP2 / RFU, GMCL1 /// GMCL1P1 / Fold change vs veh, GMCL1 /// GMCL1P1 / RFU, AEBP2 / Fold change vs veh, AEBP2 / RFU, SNHG1 /// SNORD22 /// SNORD25 /// SNORD26 /// SNORD27 /// SNORD28 /// SNORD29 /// SNORD31 / Fold change vs veh, SNHG1 /// SNORD22 /// SNORD25 /// SNORD26 /// SNORD27 /// SNORD28 /// SNORD29 /// SNORD31 / Fold change (Aza/veh), C12orf56 (ProbeSet 11735607_a_at) / Fold change (ACY-1035/veh), C12orf56 (ProbeSet 11735607_a_at) / Fold change (Aza/veh), FGFR1OP (ProbeSet 11751329_s_at) / Fold change (ACY-1035/veh), FGFR1OP (ProbeSet 11751329_s_at) / Fold change (Aza/veh), VPS36 (ProbeSet 11739960_a_at) / Fold change (ACY-1035/veh), VPS36 (ProbeSet 11739960_a_at) / RFU SYPL1 (11715823_x_at) / Fold change /veh SYPL1 (11715823_x_at) / RFU IGFBP7 (11715501_s_at) / Fold change /veh IGFBP7 (11715501_s_at) / RFU REEP3 (11722064_at) / Fold change /veh REEP3 (11722064_at) / RFU IGLL1 (11728026_x_at) / Fold change /veh IGLL1 (11728026_x_at): dose or concentration left out as unconfirmed
# Details: MV-4-11 cells, 48 hours
smiles,measurement,value
Nc1ncn([C@@H]2O[C@H](CO)[C@@H](O)[C@H]2O)c(=O)n1 [azacitidine],RFU CMKLR1 (11741424_a_at),16.54 RFU

# — publication PMC5218480 (PLoS ONE, 2017)
